Test results as given in ChEMBL document CHEMBL5233288, “Ginkgo Biflavones Cause p53 Wild-Type Dependent Cell Death in a Transcription-Independent Manner of p53” (J Nat Prod, 2023).
Activity calls are given as the source filed them. The rule behind the calls is not given here.

Experiments:
HCT-116 [1] = assay: Upregulation of BAX protein expression in human HCT-116 cells at 20 uM incubated for 24 hrs by western blot analysis; format: functional, cell-based
HCT-116 [2] = assay: Upregulation of p53 protein expression in human HCT-116 cells at 10 uM incubated for 24 hrs in presence of 10 uM 5-FU by western blot analysis; format: functional, cell-based
HCT-116 [3] = assay: Induction of cell cycle arrest in human HCT-116 cells expressing wild type p53 assessed as accumulation of cells at G2 phase at 5 uM incubated for 24 hrs by PI staining based flow cytometry (reference value: 30.7 to 31.5%); format: functional
HCT-116 [4] = assay: Induction of cell cycle arrest in human HCT-116 cells expressing wild type p53 assessed as accumulation of cells at S phase at 20 uM incubated for 24 hrs by PI staining based flow cytometry (reference value: 0.52 to 3.83%); format: functional
HCT-116 [5] = assay: Induction of cell cycle arrest in human HCT-116 cells expressing wild type p53 assessed as accumulation of cells at G1 phase at 10 uM incubated for 24 hrs by PI staining based flow cytometry (reference value: 62.5 to 66.7%); format: functional
HCT-116 [6] = assay: Induction of apoptosis in human HCT-116 cells expressing wild type p53 assessed as necrotic cells at 20 uM incubated for 48 hrs by Annexin V-FITC/PI staining based flow cytometry (reference value: 0.44%); format: functional
HCT-116 [7] = assay: Cytotoxicity against human HCT-116 cells deficit of p53 expression assessed as induction of cell death at 20 uM incubated for 72 hrs by resazurin based analysis; format: functional
HCT-116 [8] = assay: Cytotoxicity against human HCT-116 cells assessed as reduction in cell viability at 10 uM incubated for 72 hrs in presence of apoptosis inhibitor, Z-VAD-FMK by resazurin-based analysis; format: functional
HCT-116 [9] = assay: Induction of ferroptosis in human HCT-116 cells assessed as reduction in GSH content at 20 uM incubated for 24 hrs; format: functional, cell-based
HCT-116 [10] = assay: Upregulation of p21 protein expression in human HCT-116 cells at 20 uM incubated for 24 hrs by western blot analysis; format: functional, cell-based
[11] = target: Cellular tumor antigen p53 (Homo sapiens) (UniProt P04637); assay: Inhibition of p53 DNA binding activity in human HCT-116 cells assessed as reduction in DNA-protein complex formation at 20 uM incubated for 24 hrs by electrophoretic mobility shift analysis; format: cell-based
HCT-116 [12] = assay: Upregulation of p53 protein expression in human HCT-116 cells expressing wild type p53 at 20 uM by western blot analysis; format: functional, cell-based; details: time 0.5-16 hrs, TDE = time-dependent effect
LoVo = assay: Cytotoxicity against human LoVo cells expressing wild type p53 assessed as induction of cell death at 20 uM incubated for 72 hrs by resazurin based analysis; format: functional
HCT-116 [13] = assay: Induction of apoptosis in human HCT-116 cells expressing wild type p53 assessed as late apoptotic cells at 10 uM incubated for 48 hrs by Annexin V-FITC/PI staining based flow cytometry (reference value: 5.06%); format: functional
HCT-116 [14] = assay: Induction of cell cycle arrest in human HCT-116 cells expressing wild type p53 assessed as accumulation of cells at G1 phase at 20 uM incubated for 24 hrs by PI staining based flow cytometry (reference value: 62.5 to 66.7%); format: functional
HCT-116 [15] = assay: Potentiation of 5-FU-induced cytotoxicity in human HCT-116 cells assessed as reduction in cell viability at 10 uM incubated for 24 hrs in presence of 10 uM 5-FU by resazurin based analysis; format: functional
HCT-116 [16] = assay: Induction of mitochondrial membrane potential depolarization in human HCT-116 cells assessed as reduction in mitochondrial membrane potential at 20 uM incubated for 24 hrs by JC-1 staining based fluorescence analysis; format: functional, cell-based
[17] = target: Cellular tumor antigen p53 (Homo sapiens) (UniProt P04637); assay: Inhibition of p53 transcriptional activity in human HCT-116 cells assessed as inhibition of protein binding to p21 DNA promoter region at 20 uM incubated for 24 hrs by ChIP analysis; format: cell-based
HCT-116 [18] = assay: Induction of apoptosis in human HCT-116 cells expressing wild type p53 assessed as viable cells at 20 uM incubated for 48 hrs by Annexin V-FITC/PI staining based flow cytometry (reference value: 82.2%); format: functional; details: read-out: Activity
HCT-116 [19] = assay: Increase in mitochondrial complex I activity in human HCT-116 cells at 20 uM incubated for 24 hrs; format: functional, cell-based
RKO = assay: Cytotoxicity against human RKO cells expressing wild type p53 assessed as induction of cell death at 20 uM incubated for 72 hrs by resazurin based analysis; format: functional
HCT-116 [20] = assay: Induction of cell cycle arrest in human HCT-116 cells expressing wild type p53 assessed as accumulation of cells at S phase at 5 uM incubated for 24 hrs by PI staining based flow cytometry (reference value: 0.52 to 3.83%); format: functional
HCT-116 [21] = assay: Induction of intracellular ROS generation in human HCT-116 cells at 20 uM incubated for 24 hrs by DCFH-DA staining based fluorescence analysis; format: functional, cell-based
SW-620 = assay: Cytotoxicity against human SW620 cells expressing p53 mutant assessed as induction of cell death at 20 uM incubated for 72 hrs by resazurin based analysis; format: functional
HCT-116 [22] = assay: Induction of apoptosis in human HCT-116 cells expressing wild type p53 assessed as late apoptotic cells at 20 uM incubated for 48 hrs by Annexin V-FITC/PI staining based flow cytometry (reference value: 5.37%); format: functional
HCT-116 [23] = assay: Induction of apoptosis in human HCT-116 cells expressing wild type p53 assessed as early apoptotic cells at 10 uM incubated for 48 hrs by Annexin V-FITC/PI staining based flow cytometry (reference value: 12.5%); format: functional
HCT-116 [24] = assay: Induction of cell cycle arrest in human HCT-116 cells expressing wild type p53 assessed as accumulation of cells at G2 phase at 20 uM incubated for 24 hrs by PI staining based flow cytometry (reference value: 30.7 to 31.5%); format: functional
HCT-116 [25] = assay: Cytotoxicity against human HCT-116 cells expressing wild type p53 assessed as induction of cell death at 20 uM incubated for 72 hrs by resazurin based analysis; format: functional
HCT-116 [26] = assay: Induction of ferroptosis in human HCT-116 cells assessed as increase in iron content at 20 uM incubated for 24 hrs; format: functional, cell-based
HCT-116 [27] = assay: Induction of cell cycle arrest in human HCT-116 cells expressing wild type p53 assessed as accumulation of cells at S phase at 10 uM incubated for 24 hrs by PI staining based flow cytometry (reference value: 0.52 to 3.83%); format: functional
HCT-116 [28] = assay: Induction of apoptosis in human HCT-116 cells expressing wild type p53 assessed as viable cells at 10 uM incubated for 48 hrs by Annexin V-FITC/PI staining based flow cytometry (reference value: 82%); format: functional; details: read-out: Activity
HCT-116 [29] = assay: Upregulation of p53 protein expression in human HCT-116 cells expressing wild type p53 incubated for 24 hrs by western blot analysis; format: functional, cell-based; details: dose 2.5-20 µM
HCT-116 [30] = assay: Upregulation of p53 protein expression in human HCT-116 cells expressing wild type p53 at 20 uM incubated for 24 hrs by western blot analysis; format: functional, cell-based
HCT-116 [31] = assay: Induction of apoptosis in human HCT-116 cells expressing wild type p53 assessed as early apoptotic cells at 20 uM incubated for 48 hrs by Annexin V-FITC/PI staining based flow cytometry (reference value: 12%); format: functional

Chain of Cellular tumor antigen p53 (Homo sapiens) (P04637 whole entry, looked up): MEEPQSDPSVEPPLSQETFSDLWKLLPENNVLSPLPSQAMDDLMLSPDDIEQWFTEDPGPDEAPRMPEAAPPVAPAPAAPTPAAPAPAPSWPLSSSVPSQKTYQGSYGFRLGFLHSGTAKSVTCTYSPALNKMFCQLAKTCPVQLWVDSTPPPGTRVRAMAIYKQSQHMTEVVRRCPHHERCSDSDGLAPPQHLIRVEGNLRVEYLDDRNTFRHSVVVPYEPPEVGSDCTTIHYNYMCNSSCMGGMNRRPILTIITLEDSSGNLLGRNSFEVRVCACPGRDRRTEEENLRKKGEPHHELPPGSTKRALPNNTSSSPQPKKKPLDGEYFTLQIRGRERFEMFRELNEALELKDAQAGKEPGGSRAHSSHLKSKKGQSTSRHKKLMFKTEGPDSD

| SMILES | Activity (HCT-116 [1]) | Activity (HCT-116 [2]) | Activity (HCT-116 [3]) | Activity (HCT-116 [4]) | Activity (HCT-116 [5]) | Activity (HCT-116 [6]) | Activity (HCT-116 [7]) | Activity (HCT-116 [8]) | Activity (HCT-116 [9]) | Activity (HCT-116 [10]) | inhibition [11] | Activity (HCT-116 [12]) | Activity (LoVo) | Activity (HCT-116 [13]) | Activity (HCT-116 [14]) | Activity (HCT-116 [15]) | Activity (HCT-116 [16]) | inhibition [17] | viability at 20 µM (HCT-116 [18]) | Activity (HCT-116 [19]) | other results |
| --- | --- | --- | --- | --- | --- | --- | --- | --- | --- | --- | --- | --- | --- | --- | --- | --- | --- | --- | --- | --- | --- |
| COc1ccc(-c2cc(=O)c3c(O)cc(O)cc3o2)cc1-c1c(O)cc(O)c2c(=O)cc(-c3ccc(O)cc3)oc12 [BILOBETIN] | inactive | Active | 32.7% | 7.24% | 59.9% | 0.49% | inactive | inactive | Active | inactive | Active | Tde | Active | 3.58% | 51.2% | Active | Active | Active | 52.6% | Active | Activity (RKO): Active; Activity (HCT-116 [20]): 1.81%; Activity (HCT-116 [21]): Active; Activity (SW-620): inactive; Activity (HCT-116 [22]): 6.94%; Activity (HCT-116 [23]): 28%; Activity (HCT-116 [24]): 41%; Activity (HCT-116 [25]): Active; Activity (HCT-116 [26]): Active; Activity (HCT-116 [27]): 4.88%; viability at 10 µM (HCT-116 [28]): 67.9%; Activity (HCT-116 [29]): Dose-Dependent Effect; Activity (HCT-116 [30]): Active; Activity (HCT-116 [31]): 39.9% |
| COc1cc(O)c2c(=O)cc(-c3ccc(OC)c(-c4c(O)cc(O)c5c(=O)cc(-c6ccc(O)cc6)oc45)c3)oc2c1 [GINKGETIN] | inactive | Active | 39.2% | 1.47% | 51.2% | 0.54% | inactive | inactive | Active | inactive | Active | Tde | Active | 5.69% | 45.3% | Active | Active | Active | 55.4% | Active | Activity (RKO): Active; Activity (HCT-116 [20]): 1.2%; Activity (HCT-116 [21]): Active; Activity (SW-620): inactive; Activity (HCT-116 [22]): 10.5%; Activity (HCT-116 [23]): 25.8%; Activity (HCT-116 [24]): 52.1%; Activity (HCT-116 [25]): Active; Activity (HCT-116 [26]): Active; Activity (HCT-116 [27]): 3.37%; viability at 10 µM (HCT-116 [28]): 67.6%; Activity (HCT-116 [29]): Dose-Dependent Effect; Activity (HCT-116 [30]): Active; Activity (HCT-116 [31]): 33.6% |
| COc1ccc(-c2cc(=O)c3c(O)cc(O)c(-c4cc(-c5cc(=O)c6c(O)cc(O)cc6o5)ccc4OC)c3o2)cc1 [ISOGINKGETIN] | inactive | Active | 36.7% | 3.82% | 52.6% | 0.79% | inactive | inactive | Active | inactive | Active | Tde | Active | 2.58% | 47.3% | Active | Active | Active | 49.1% | Active | Activity (RKO): Active; Activity (HCT-116 [20]): 3.37%; Activity (HCT-116 [21]): Active; Activity (SW-620): inactive; Activity (HCT-116 [22]): 9.54%; Activity (HCT-116 [23]): 26.5%; Activity (HCT-116 [24]): 46.6%; Activity (HCT-116 [25]): Active; Activity (HCT-116 [26]): Active; Activity (HCT-116 [27]): 1.38%; viability at 10 µM (HCT-116 [28]): 70%; Activity (HCT-116 [29]): Dose-Dependent Effect; Activity (HCT-116 [30]): Active; Activity (HCT-116 [31]): 40.6% |
